From PubChem BioAssay AID179 (DTP/NCI, 2004)
Active and inactive are the calls of the source.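 Rule for the calls: active = compounds giving half or more protection of infected cells from virus-caused growth loss, again on retest; inactive = the rest.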 Where a SMILES comes first, the peptide text is derived from it.

Test system: CEM cells HIV-1 protection, formazan growth assay
Assay: NCI AIDS Antiviral Assay
Conditions: for IC50: measured here: growth of uninfected CEM cells
In short: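 Screen of anti-HIV-1 activity in human CEM cells using a formazan-based growth measurement at five drug concentrations. Hits with 50% or greater protection were repeated, and confirmation required reproducible complete protection.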

| SMILES | outcome | EC50 [µM] | IC50 [µM] |
| --- | --- | --- | --- |
| CCN(CC)CCN(C)c1ccc(/C=C/c2ccnc3ccccc23)cc1 | inactive | – | – |
| COC(=O)OCC1C=CC(n2cnc3c(Cl)nc(N)nc32)CC1 (stereo unspecified) | – | > 200 | 31.6 |
| NC1=NC(OCC2(CO)CCC2)C=C(NCC2(CO)CCC2)N1 (stereo unspecified) | – | > 200 | > 100 |
| Cc1c(Cl)cccc1NC(=O)C(=O)C1C(=O)NC(=O)NC1=O | – | > 398 | > 398 |
| Cc1csc2nc(-c3ccccc3)c(/C=N/NC(=O)CN(C)C)n12 | inactive | – | – |
| CC(C)(C)c1cc(N=O)cc(C(C)(C)C)c1O | – | > 200 | 18.6 |
| O=C1OC[C@H]2[C@@H]1[C@H]1O[C@@H]2C2=C(CCC2)C1=O | – | > 200 | > 200 |
| COc1cc2nncc(SCc3ccccc3Cl)c2cc1OC | – | 1.45 | 51.3 |
| CCOC(=O)C(C)(C)Oc1ccc(Cl)cc1 | – | > 200 | > 200 |
| Clc1ccccc1CSc1ccc2nncc(SCc3ccccc3Cl)c2c1 | – | > 34.7 | > 34.7 |
| COc1ccc(/C=C2\NC(=S)NC2=O)cc1 | – | > 200 | 151 |
| CCS(=O)(=O)CCn1cnc2c1c(=O)n(C)c(=O)n2C | – | > 200 | > 200 |
| CC1NOC(=O)C1N=Nc1cccc(Cl)c1 (stereo unspecified) | – | 5.25 | 30.2 |
| NC(=O)c1c2c(cc3c(=O)c4ccccc4[nH]c13)CCCC2 | inactive | – | – |
| CC1(C)CNC[C@@](C)(OCCO)C(=O)[N-]C(C)(C)CNC[C@@](C)(OCCO)C(=O)[N-]1.[Ni+2] | – | > 200 | > 200 |
| Cc1ccc(Nc2cn(COCc3ccccc3)c(=O)[nH]c2=O)cc1 | – | > 200 | > 200 |
| C=CCCCC1CCCNC1=O (stereo unspecified) | – | > 1480 | 1150 |
| COc1ccc2c(=O)c(S)coc2c1 | – | > 200 | 30.2 |
| c1ccc2c3c([nH]c2c1)C1c2[nH]c4ccccc4c2CCN1CC3 | – | > 200 | 11 |
| O=c1c2cccnc2[nH]c2ccc3scnc3c12 | – | > 200 | > 200 |
| CCc1n[nH]c(=S)n1/N=C/c1ccc(-c2ccc([N+](=O)[O-])cc2)o1 | – | > 11 | > 11 |
| O=C1C2=C(c3ccccc31)C(c1ccc(Cl)cc1)NC(=S)N2 (stereo unspecified) | – | > 57.5 | 29.5 |

| SMILES | outcome | EC50 [µM] | IC50 [µM] |
| --- | --- | --- | --- |
| O=S(=O)(O)c1ccc(N/N=C/c2ccccc2)cc1 | – | > 832 | 794 |
| CC(=O)O.[Ag] | – | > 64.6 | 18.2 |
| c1ccc2[nH]c(-c3cscn3)nc2c1 | – | > 200 | > 200 |
| O=C(Nn1cnn2c(=O)c3ccccc3nc2c1=O)c1ccccc1 | – | > 200 | > 200 |
| NC(=O)C(N/N=C(/C(=O)c1ccccc1)c1ccccc1)c1ccccc1 (stereo unspecified) | – | > 200 | 44.7 |
| CN1Cc2ccccc2S(=O)(=O)n2cccc2C1=O | – | > 200 | > 200 |
| N=c1oc2cc(O)c(O)cc2cc1C(N)=O | – | > 8.32 | 7.41 |
| CCCCc1ccc(Nc2nc3c(ncn3COCCBr)c(=O)[nH]2)cc1 | – | > 200 | > 200 |
| CSc1c(C(N)=S)c(N)nn1-c1ccccc1 | – | > 200 | 155 |
| Nc1nc(C=O)nc2c1ncn2C1OC(CO)C(O)C1O (stereo unspecified) | – | > 200 | 30.9 |
| COc1ccc(-c2cc(-c3ccncc3)nc(N)c2-c2ccc(F)cc2)cc1 | – | > 174 | > 174 |
| C[n+]1cc2c3c(ccc2c2ccc4cc5c(cc4c21)OCO5)OCO3 | – | > 1.58 | 0.288 |
| CCN(CC)CCOc1ccc(/C(C#N)=C/c2ccccc2OCCN(CC)CC)cc1 | – | > 200 | 2.63 |
| CC1C(=O)N=C2C(=CN(Cc3ccccc3)c3ccccc32)C(=O)N1C (stereo unspecified) | inactive | – | – |
| CC(=O)[O-].N.N.N.N.N.[Co+3].[O-][Cl+3]([O-])([O-])[O-] | inactive | – | – |
| CCc1cccc(C)c1N1C(=O)C(=O)C(c2nc3ccccc3o2)C(=O)C1=O | – | > 331 | 66.1 |
| O=S(=O)(C1=CC(S(=O)(=O)c2ccccc2)COC1)c1ccccc1 (stereo unspecified) | inactive | – | – |
| CC(C)(C)c1cc(C(=O)Nc2cc(Br)c(Br)cc2S(N)(=O)=O)cc(C(C)(C)C)c1O | – | > 200 | 8.13 |
| CN(C)c1ccc(/C=C/c2ccc3ccccc3[n+]2C)cc1 | – | 0.0631 | 0.398 |
| CCC(C)C(NC(=O)C(CCCN=C(N)N)NC(=O)C(CC(N)=O)NC(=O)C(Cc1ccc(O)cc1)NC(=O)C(N)CC(C)C)C(=O)NC(C(=O)NC(CC(C)C)C(=O)NC(CCCN=C(N)N)C(=O)NC(Cc1ccc(O)cc1)C(=O)O)C(C)CC (stereo unspecified) (H-LYNRIILRY-OH; configuration not given here) | – | > 40.7 | 23.4 |
| O=c1cc(NNc2ccccc2)[nH]c(=S)[nH]1 | – | > 200 | 12.3 |
| [O]=[Bi](=[O])[O]CC(O)CO (stereo unspecified) | – | > 4.37 | > 4.37 |

| SMILES | outcome | EC50 [µM] | IC50 [µM] |
| --- | --- | --- | --- |
| Cc1nn(C)pc1P(C)(=S)n1nc(N(C)C)np1 (stereo unspecified) | – | > 776 | > 776 |
| N.N.N.N.O=N[O-].O=N[O-].O=[N+]([O-])[O-].[Co+3] | – | > 200 | > 200 |
| CC(=O)Nc1ccc(C(=O)NN2C(=O)C(Cl)/C2=C/c2ccco2)cc1 (stereo unspecified) | inactive | – | – |
| Cc1c2c(c(C)c3c1C(=O)c1cc4c(cc1C3=O)OCO4)OCO2 | – | > 200 | > 200 |
| COc1ccc(/C(Cl)=C/c2cc(OC)ccc2OC)cc1 | – | > 200 | 13.5 |
| CCC1(CC)COP(=O)(Oc2ccccc2)OC1 | – | > 200 | > 200 |
| O=Cc1c2ccccc2n2ccc3c4ccccc4[nH]c3c12 | – | > 200 | > 200 |
| COC(=O)C1=C(C(=O)OC)P2(C)(C)SC(=S)N2C1(c1ccccc1)c1ccccc1 | – | > 200 | > 200 |
| Cc1c(N(Cc2ccccc2)Cc2ccccc2)nc(S(C)(=O)=O)nc1S(C)(=O)=O | inactive | – | – |
| COC(=O)CCC(=O)c1ccc2c(c1)CC1(C2)Cc2ccc3c(c2C1)CCCC3=O (stereo unspecified) | – | > 200 | 8.51 |
| Nc1nc2c(ncn2C2C=CC(O)CC2)c(=O)[nH]1 (stereo unspecified) | – | > 55 | > 55 |
| CC(C)(C)C[PH+](CC[PH+](CC(C)(C)C)CC(C)(C)C)CC(C)(C)C.[C-]#[O+].[C-]#[O+].[C-]#[O+].[C-]#[O+].[Mo] | – | > 3.47 | > 3.47 |
| O=S1(=O)C[C@@H](NCc2ccccc2)[C@H](NCc2ccccc2)C1 | – | > 200 | > 200 |
| O=C1C=C(c2ccccc2)C(c2ccccc2)C1O (stereo unspecified) | – | > 200 | 135 |
| COc1ccc(CN(Cc2ccccc2)c2ncccn2)cc1 | – | > 17 | > 17 |
| CCCCCCCCCCCCCCCCCCNC(=S)NC=C(C(N)=O)C(N)=O | – | > 100 | > 100 |
| COc1cc(-c2oc3c(Cl)cc(Cl)cc3c(=O)c2O)cc(OC)c1OC | – | > 200 | 38 |
| CN(C)CCCNC(=O)c1cc(NC(=O)c2cc(NC(=O)c3cc(NC(=O)c4cncc(C(=O)Nc5cc(C(=O)Nc6cc(C(=O)Nc7cc(C(=O)NCCCN(C)C)n(C)c7)n(C)c6)n(C)c5)c4)cn3C)cn2C)cn1C | – | > 100 | > 100 |
| CCOc1cc2c(cc1O)C=C[C@@H]1[C@@H]2CC[C@]2(C)[C@@H](O)CC[C@@H]12 | – | > 2 | 0.589 |
| Cc1nnc2sc3c(Cl)c4nn5c(C)nnc5sc4c(Cl)c3nn12 | – | > 200 | 2.95 |
| Cc1cccc2c1NC(c1c(C)[nH]c3ccccc13)C2 (stereo unspecified) | inactive | – | – |
